Data set [1] has as its target T1, human cloned dopamine D3 receptors (Homo sapiens, UniProt P35462).
T1 construct: expressed in transfected cells; host or cells: CHO cells
The experiment in a line: Inhibition of the binding of [3H]Spiperone to human D3 receptors. The note with it: [3H]Spiperone 0.3 nM, membranes of CHO-cells; for IC50: read-out: D3-bind. IC50; for inhibition at 0.1 µM: 100 nM, read-out: D3-bind. % inhibition of binding at 100 nM. Here is the method: Inhibition of the Binding of [^3H]Spiperone to Human D3 Receptors
By this method the inhibition by drugs of the binding [^3H]Spiperone (0.3 nM) to membranes of human cloned dopamine D3 receptors expressed in CHO-cells is determined in vitro. Method modified from MacKenzie et al. Eur. J. Pharm.-Mol. Pharm. Sec. 1994, 266, 79–85.

Data set [2] concerns the target alpha-1 receptors. Nature of the data set: Inhibition of binding of [3H]Prazosine to rat alpha-1 receptors. The note with it: [3H]Prazosine 0.25 nM, membranes from rat brain. The protocol:
Inhibition of Binding of [^3H]Prazosine to Rat Alpha-1 Receptors
By this method the inhibition by drugs of the binding of [^3H]Prazosine (0.25 nM) to alpha-1 receptors in membranes from rat brain is determined in vitro. Method modified from Hyttel et al. J. Neurochem. 1985, 44, 1615–1622.

The target in data set [3] is T2, human cloned dopamine D4.2 receptors (Homo sapiens, UniProt P21917, DEL265-296).
T2 construct: expressed in transfected cells; host or cells: CHO cells
T2 sequence (P21917 with tags, fused parts or gaps DEL265-296): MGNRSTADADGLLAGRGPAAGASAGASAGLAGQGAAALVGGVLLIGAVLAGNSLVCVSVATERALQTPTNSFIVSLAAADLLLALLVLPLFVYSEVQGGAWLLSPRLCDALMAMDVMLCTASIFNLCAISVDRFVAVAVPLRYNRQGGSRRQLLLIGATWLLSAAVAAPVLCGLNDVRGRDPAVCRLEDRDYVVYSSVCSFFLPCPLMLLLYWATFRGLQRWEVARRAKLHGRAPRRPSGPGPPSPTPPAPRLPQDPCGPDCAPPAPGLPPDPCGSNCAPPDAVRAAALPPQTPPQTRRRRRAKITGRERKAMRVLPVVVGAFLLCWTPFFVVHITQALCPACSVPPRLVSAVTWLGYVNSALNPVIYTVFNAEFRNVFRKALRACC
Nature of the data set: Inhibition of the binding of [3H]YM-09151-2 to human dopamine D4 receptors. The note with it: [3H]YM-09151-2 0.06 nM, membranes of CHO-cells; read-out: D4-bind. IC50. Here is the method: Inhibition of the Binding of [^3H]YM-09151-2 to Human Dopamine D4 Receptors
By this method the inhibition by drugs of the binding of [^3H]YM-09151–2 (0.06 nM) to membranes of human cloned dopamine D4.2 receptors expressed in CHO-cells is determined in vitro. Method modified from NEN Life Science Products, Inc., technical data certificate PC2533-10/96.

We go through 18 molecules from US7074796B2 (H. Lundbeck A/S, priority 1999, dated 2006).

Each structure is given as a SMILES string. Structures can show the parent of a compound that is named as a salt.

By melting point is commonly meant the temperature of the solid-liquid transition. Broadly, the IC50 is the concentration that gives 50% inhibition. As a reminder, the inhibition is the share of the control response that was lost under treatment.

T1 sequence (P35462 whole entry): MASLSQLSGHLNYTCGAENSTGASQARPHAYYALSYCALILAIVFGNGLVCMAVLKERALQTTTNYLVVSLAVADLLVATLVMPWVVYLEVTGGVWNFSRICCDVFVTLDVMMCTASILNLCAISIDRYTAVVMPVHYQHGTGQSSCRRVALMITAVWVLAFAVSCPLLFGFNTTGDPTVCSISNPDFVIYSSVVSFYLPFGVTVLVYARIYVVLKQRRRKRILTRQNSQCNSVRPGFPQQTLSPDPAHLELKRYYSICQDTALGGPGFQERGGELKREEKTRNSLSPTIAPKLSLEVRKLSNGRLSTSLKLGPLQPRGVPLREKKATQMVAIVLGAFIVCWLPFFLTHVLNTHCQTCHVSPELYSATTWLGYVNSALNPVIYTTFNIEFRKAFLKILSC

Regarding `Clc1cccc(N2CCN(CCCCCN3CCc4ccccc43)CC2)c1Cl` (as salt: hydrochloride) [Compound 2c, 1-{5-[4-(2,3-Dichlorophenyl)piperazin-1-yl]pentyl}-2,3-dihydro-1H-indole], the melting point lay within 219 to 228 °C.
`O=C1CCc2ccccc2N1CCCCN1CCN(c2cccc(Cl)c2Cl)CC1` (as salt: hydrochloride) [Compound 6, 1-{4-[4-(2,3-Dichlorophenyl)piperazin-1-yl]butyl}-3,4-dihydroquinolin-2(1H)-one] came in with a melting point of 234 to 235 °C.
Still for that read-out and setting: in the case of `Clc1cccc(N2CCN(CCCCC3CCc4ccccc43)CC2)c1Cl` (stereo not shown) (as salt: oxalate) [Compound 3, 1-(2,3-Dichlorophenyl)-4-[4-(indan-1-yl)butyl]piperazine] it was 171 to 176 °C; in that of `Clc1ccc2c(SCCN3CCN(c4cccc(Cl)c4Cl)CC3)c[nH]c2c1` (as salt: oxalate) [Compound 4, 6-Chloro-3-{2-[4-(2,3-dichlorophenyl)piperazin-1-yl]ethylsulfanyl}-1H-indole], 137 to 141 °C.
On to `Clc1cccc(N2CCN(CCCc3c[nH]c4ccccc34)CC2)c1Cl` [Compound 5a, 3-{3-[4-(2,3-Dichlorophenyl)piperazin-1-yl]propyl}-1H-indole], for which the values for the IC50 in data set [1], in data set [2] and in data set [3] were 2.8 nM, 410 nM and 2.2 nM, respectively.
The like results for `Clc1cccc(N2CCN(CCCCc3c[nH]c4ccccc34)CC2)c1Cl` [Compound 5b, 3-{4-[4-(2,3-Dichlorophenyl)piperazin-1-yl]butyl}-1H-indole] were, in that order, 1.1 nM, 570 nM and 14 nM.
The matching figures for `Fc1ccc2[nH]cc(CCCN3CCN(c4cccc(Cl)c4Cl)CC3)c2c1` [Compound 5c, 3-{3-[4-(2,3-Dichlorophenyl)piperazin-1-yl]propyl}-5-fluoro-1H-indole]: 6.8 nM, 960 nM and 3.9 nM.
For the molecule `Fc1ccc2[nH]cc(CCCCN3CCN(c4cccc(Cl)c4Cl)CC3)c2c1` [Compound 5d, 3-{4-[4-(2,3-Dichlorophenyl)piperazin-1-yl]butyl}-5-fluoro-1H-indole], the IC50 in data set [1] was determined as 1 nM; in data set [2], 720 nM; in data set [3], 8.6 nM.
As to `Clc1ccc2c(CCCN3CCN(c4cccc(Cl)c4Cl)CC3)c[nH]c2c1` [Compound 5e, 6-Chloro-3-{3-[4-(2,3-dichlorophenyl)piperazin-1-yl]propyl}-1H-indole], the inhibition at 0.1 µM in data set [1] was 93%. Further, the half-maximal inhibitory concentration (IC50) is 470 nM in data set [2] and 27 nM in data set [3].
Consider `O=C1CCc2ccccc2N1CCCCN1CCN(c2cccc(Cl)c2Cl)CC1` [Compound 6, 1-{4-[4-(2,3-Dichlorophenyl)piperazin-1-yl]butyl}-3,4-dihydroquinolin-2(1H)-one], for which the IC50 in data set [1] stood at 1.8 nM; in data set [2], 43 nM; in data set [3], 16 nM.
On to `O=C(CCN1CCN(c2cccc(Cl)c2Cl)CC1)N1CCc2cc(F)ccc21` [Compound 7a, 3-[4-(2,3-Dichlorophenyl)piperazin-1-yl]-1-(5-fluoro-2,3-dihydro-1H-indol-1-yl)propan-1-one], for which, in data set [1], the inhibition at 0.1 µM worked out at 73%. In data set [2], the “Alpha-1 % inhibition of binding at 100 nM” value (shortened to “Alpha-1 % inhibition”) amounted to 38%. Moreover, in data set [3], the IC50 came to 25 nM.
The matching figures for `O=C(CCCN1CCN(c2cccc(Cl)c2Cl)CC1)N1CCc2cc(F)ccc21` [Compound 7b, 4-[4-(2,3-Dichlorophenyl)piperazin-1-yl]-1-(5-fluoro-2,3-dihydro-1H-indol-1-yl)butan-1-one]: 65%, 6% and 53 nM.
The like results for `O=C(CCCCN1CCN(c2cccc(Cl)c2Cl)CC1)N1CCc2cc(F)ccc21` [Compound 7c, 5-[4-(2,3-Dichlorophenyl)piperazin-1-yl]-1-(5-fluoro-2,3-dihydro-1H-indol-1-yl)pentan-1-one] were, in that order, 92%, 45% and 61 nM.
The matching figures for `O=C(CCN1CCN(c2cccc(Cl)c2Cl)CC1)N1CCc2ccccc2C1` [Compound 7d, 3-[4-(2,3-Dichlorophenyl)piperazin-1-yl]-1-(3,4-dihydro-1H-isoquinolin-2-yl)-propan-1-one]: 85%, 44% and 6 nM.
As for `O=C(CCCN1CCN(c2cccc(Cl)c2Cl)CC1)N1CCc2ccccc2C1` [Compound 7e], in data set [1], the inhibition at 0.1 µM worked out at 94%. For the same molecule, in data set [2], the “Alpha-1 % inhibition” value was 31%. The IC50 in data set [3] turned out to be 10 nM.
The like results for `O=C(CCN1CCN(c2ccccc2Cl)CC1)N1CCc2ccccc2C1` [Compound 8k, 3-[4-(2-Chlorophenyl)piperazin-1-yl]-1-(3,4-dihydro-1H-isoquinolin-2-yl)-propan-1-one] were, in that order, 73%, 92% and 8 nM.
The like results for `O=C(CCCN1CCN(c2ccccc2Cl)CC1)N1CCc2ccccc2C1` [Compound 8l, 4-[4-(2-Chlorophenyl)piperazin-1-yl]-1-(3,4-dihydro-1H-isoquinolin-2-yl)-butan-1-one] were, in that order, 88%, 74% and 4 nM.
Regarding `O=C(CCCN1CCN(c2ccccc2F)CC1)N1CCc2ccccc2C1` [Compound 9k, 1-(3,4-Dihydro-1H-isoquinolin-2-yl)-4-[4-(2-fluoro-phenyl)-piperazin-1-yl]-butan-1-one], the inhibition at 0.1 µM in data set [1] was 92%. For the same molecule, the “Alpha-1 % inhibition” value in data set [2] turned out to be 69%. Further, the IC50 in data set [3] came to 9 nM.
